According to ChEMBL document CHEMBL1201862, “PubChem BioAssay data set” (2004):
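Each compound was tested at five concentrations against cells in 96-well plates for 48 hours. GI50 = concentration required for 50% inhibition of growth.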 Calls of active or inactive are those of the source. No stated cut-off is given here; in the data, active = GI50 up to about 1.1 µM and inactive = higher. Residues, ends and D or L forms follow the SMILES beside them. *: point of attachment. Fmoc = O=C(OCC1c2ccccc2-c2ccccc21)*; Boc = CC(C)(C)OC(=O)*

Experiments:
Experiment in all cases: inhibition of tumour cell growth, NCI panel, 48 h
[1] = system: A549
[2] = system: ACHN
[3] = system: CAKI-1
[4] = system: DU-145
[5] = system: EKVX
[6] = system: HCC 2998
[7] = system: HOP-92
[8] = system: K562
[9] = system: LOX IMVI
[10] = system: MDA-MB-435
[11] = system: Malme-3M
[12] = system: OVCAR-3
[13] = system: OVCAR-5
[14] = system: OVCAR-8
[15] = system: RXF 393
[16] = system: SK-MEL-28
[17] = system: T47D
[18] = system: U-251
[19] = system: UACC-62
[20] = system: UO-31

SMILES	GI50 [1]	GI50 [2]	GI50 [3]	GI50 [4]	GI50 [5]	GI50 [6]	GI50 [7]	GI50 [8]	GI50 [9]	GI50 [10]	GI50 [11]	GI50 [12]	GI50 [13]	GI50 [14]	GI50 [15]	GI50 [16]	GI50 [17]	GI50 [18]	GI50 [19]	GI50 [20]
CC(C)(C)OC(=O)NCCCCC(NC(=O)C(Cc1c[nH]c2ccccc12)NC(=O)OCC1c2ccccc2-c2ccccc21)C(=O)N1CCCC1C(=O)NCC(N)=O (stereo not given) (Fmoc-WK(Boc)PG-NH2; configuration not given here)	> 100 µM (inactive)	> 100 µM (inactive)	> 100 µM (inactive)	> 100 µM (inactive)	> 100 µM (inactive)	> 100 µM (inactive)	> 100 µM (inactive)	> 100 µM (inactive)	> 100 µM (inactive)	> 100 µM (inactive)	> 100 µM (inactive)	> 100 µM (inactive)	> 100 µM (inactive)	> 100 µM (inactive)	> 100 µM (inactive)	> 100 µM (inactive)	> 100 µM (inactive)	> 100 µM (inactive)	> 100 µM (inactive)	> 100 µM (inactive)
N/C(=N\Nc1ccc(S(N)(=O)=O)cc1)c1cnccn1	> 100 µM (inactive)	> 100 µM (inactive)	> 100 µM (inactive)	> 100 µM (inactive)	> 100 µM (inactive)	> 100 µM (inactive)	> 100 µM (inactive)	> 100 µM (inactive)	> 100 µM (inactive)	> 100 µM (inactive)	> 100 µM (inactive)	> 100 µM (inactive)	> 100 µM (inactive)	> 100 µM (inactive)	> 100 µM (inactive)	> 100 µM (inactive)	> 100 µM (inactive)	> 100 µM (inactive)	> 100 µM (inactive)	> 100 µM (inactive)
O=[N+]([O-])c1ccc2c(c1)/C(=N/N=C1c3ccccc3Cc3ccccc31)c1cc([N+](=O)[O-])cc([N+](=O)[O-])c1-2	9.4 µM (inactive)	2.99 µM (inactive)	3.6 µM (inactive)	5.82 µM (inactive)	5.12 µM (inactive)	5.85 µM (inactive)	2.17 µM (inactive)	3.7 µM (inactive)	2.24 µM (inactive)	1.79 µM (inactive)	2.79 µM (inactive)	1.69 µM (inactive)	2.75 µM (inactive)	1.67 µM (inactive)	2.61 µM (inactive)	3.45 µM (inactive)	1.78 µM (inactive)	3.24 µM (inactive)	2.62 µM (inactive)	2.05 µM (inactive)
CCOC1c2cc(OC)c(OC)cc2-c2ccc3ccccc3c2N1C (stereo not given)	5.62 µM (inactive)	30.3 µM (inactive)	34.1 µM (inactive)	15 µM (inactive)	6.27 µM (inactive)	14.1 µM (inactive)	21.9 µM (inactive)	7.16 µM (inactive)	14.9 µM (inactive)	13.8 µM (inactive)	9.16 µM (inactive)	11.5 µM (inactive)	21.8 µM (inactive)	12.2 µM (inactive)	21.7 µM (inactive)	13.4 µM (inactive)	4.84 µM (inactive)	6.41 µM (inactive)	12.6 µM (inactive)	44.6 µM (inactive)
CCOC(=O)/C=C/CCO[Si](C)(C)C(C)(C)C	> 100 µM (inactive)	> 100 µM (inactive)	> 100 µM (inactive)	> 100 µM (inactive)	> 100 µM (inactive)	> 100 µM (inactive)	> 100 µM (inactive)	> 100 µM (inactive)	50.5 µM (inactive)	> 100 µM (inactive)	> 100 µM (inactive)	> 100 µM (inactive)	> 100 µM (inactive)	> 100 µM (inactive)	> 100 µM (inactive)	> 100 µM (inactive)	> 100 µM (inactive)	> 100 µM (inactive)	> 100 µM (inactive)	> 100 µM (inactive)
O=[N+]([O-])c1ccc2c(c1)=[N+]([O-])C1(CCCCC1)[N+]=2[O-]	19.7 µM (inactive)	19.6 µM (inactive)	20.4 µM (inactive)	18.9 µM (inactive)	15.5 µM (inactive)	18.3 µM (inactive)	15.3 µM (inactive)	15.8 µM (inactive)	19.9 µM (inactive)	13.7 µM (inactive)	15.2 µM (inactive)	15.6 µM (inactive)	20.5 µM (inactive)	15.8 µM (inactive)	18.5 µM (inactive)	19.3 µM (inactive)	25.5 µM (inactive)	17.2 µM (inactive)	10.4 µM (inactive)	19.6 µM (inactive)
O=C1c2ccccc2-c2nnc3c(c21)Cc1ccccc1C3	> 10 µM (inactive)	> 10 µM (inactive)	> 10 µM (inactive)	> 10 µM (inactive)	> 10 µM (inactive)	> 10 µM (inactive)	> 10 µM (inactive)	> 10 µM (inactive)	> 10 µM (inactive)	> 10 µM (inactive)	> 10 µM (inactive)	> 10 µM (inactive)	> 10 µM (inactive)	> 10 µM (inactive)	> 10 µM (inactive)	> 10 µM (inactive)	> 10 µM (inactive)	> 10 µM (inactive)	> 10 µM (inactive)	> 10 µM (inactive)
CC12CCCCC1=[N+]([O-])C(C)(C)N2O (stereo not given)	> 100 µM (inactive)	> 100 µM (inactive)	> 100 µM (inactive)	> 100 µM (inactive)	> 100 µM (inactive)	> 100 µM (inactive)	> 100 µM (inactive)	> 10 µM (inactive)	> 100 µM (inactive)	> 100 µM (inactive)	> 100 µM (inactive)	> 100 µM (inactive)	> 100 µM (inactive)	> 100 µM (inactive)	> 100 µM (inactive)	> 100 µM (inactive)	> 100 µM (inactive)	> 100 µM (inactive)	> 100 µM (inactive)	> 100 µM (inactive)
COc1ccc(/C=C2\Sc3nnc(C)n3N=C2c2cc(F)c(Cl)cc2Cl)cc1OC	21.2 µM (inactive)	12.6 µM (inactive)	8.13 µM (inactive)	14.7 µM (inactive)	10.8 µM (inactive)	17.6 µM (inactive)	13.8 µM (inactive)	3.09 µM (inactive)	13.8 µM (inactive)	10.4 µM (inactive)	18.3 µM (inactive)	4.52 µM (inactive)	15.6 µM (inactive)	15.5 µM (inactive)	15.9 µM (inactive)	23.3 µM (inactive)	24.8 µM (inactive)	15.8 µM (inactive)	16.7 µM (inactive)	10.4 µM (inactive)
CC1=NN(C(=O)CC(=O)Nc2ccc(Cl)cc2)C(=O)C1/N=N\c1ccc(S(=O)(=O)c2ccc(/N=N/C3C(=O)N(C(=O)CC(=O)Nc4ccc(Cl)cc4)N=C3C)cc2)cc1 (stereo not given)	> 100 µM (inactive)	24.7 µM (inactive)	> 100 µM (inactive)	> 100 µM (inactive)	> 100 µM (inactive)	> 100 µM (inactive)	> 100 µM (inactive)	77.1 µM (inactive)	> 100 µM (inactive)	> 100 µM (inactive)	> 100 µM (inactive)	> 100 µM (inactive)	42.3 µM (inactive)	> 100 µM (inactive)	41.5 µM (inactive)	> 100 µM (inactive)	> 100 µM (inactive)	22.4 µM (inactive)	> 100 µM (inactive)	> 100 µM (inactive)
Cc1csc2nc(-c3cccc([N+](=O)[O-])c3)c(/C=N/N=C(N)N)n12	1.72 µM (inactive)	1.8 µM (inactive)	2.73 µM (inactive)	2.19 µM (inactive)	1.55 µM (inactive)	< 0.01 µM (active)	0.0968 µM (active)	1.98 µM (inactive)	1.81 µM (inactive)	1.66 µM (inactive)	1.72 µM (inactive)	1.62 µM (inactive)	1.63 µM (inactive)	1.74 µM (inactive)	1.7 µM (inactive)	1.71 µM (inactive)	1.87 µM (inactive)	1.67 µM (inactive)	1.46 µM (inactive)	1.39 µM (inactive)
CCN(C)c1nc(N(C)CC)c2nc(N(C)CC)nc(N(C)CC)c2n1	> 100 µM (inactive)	> 100 µM (inactive)	> 100 µM (inactive)	> 100 µM (inactive)	> 100 µM (inactive)	> 100 µM (inactive)	> 100 µM (inactive)	> 100 µM (inactive)	> 100 µM (inactive)	> 100 µM (inactive)	> 100 µM (inactive)	> 100 µM (inactive)	> 100 µM (inactive)	> 100 µM (inactive)	> 100 µM (inactive)	> 100 µM (inactive)	> 100 µM (inactive)	> 100 µM (inactive)	> 100 µM (inactive)	> 100 µM (inactive)
